Source: paper PMC11787452, “Substrate and inhibitor specificity of Plasmodium nucleoside transporters ENT1 orthologs” (The Journal of Biological Chemistry, 2024)
Where “and” joins values, the source holds several entries; their conditions need not be identical. Identical values can stand only once. Like-named read-outs stand apart in the source and are kept apart here.

How the values were obtained:
[1] = target: T1, PfENT1 (Plasmodium falciparum, UniProt Q8IDM6); assay: ITC binding to PfENT1; details: for Kd: 25 °C, 25 mM MES pH 6.0, 150 mM NaCl, 0.05% DDM
T1 construct: 10xHis (N); made in house; host or cells: Sf9 insect cells (baculovirus)
T1 sequence (Q8IDM6 whole entry): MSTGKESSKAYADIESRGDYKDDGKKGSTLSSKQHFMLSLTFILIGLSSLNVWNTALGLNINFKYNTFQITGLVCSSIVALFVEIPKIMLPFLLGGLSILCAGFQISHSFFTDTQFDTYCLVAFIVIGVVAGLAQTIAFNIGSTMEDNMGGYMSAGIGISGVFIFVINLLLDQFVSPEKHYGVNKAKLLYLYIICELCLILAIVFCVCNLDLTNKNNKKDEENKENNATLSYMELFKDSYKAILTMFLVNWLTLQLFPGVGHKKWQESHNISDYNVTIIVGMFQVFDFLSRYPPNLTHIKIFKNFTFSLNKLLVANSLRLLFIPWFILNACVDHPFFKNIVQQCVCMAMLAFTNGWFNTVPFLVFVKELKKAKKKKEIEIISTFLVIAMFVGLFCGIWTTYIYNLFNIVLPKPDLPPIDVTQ
Description: (§1) All the constructs were subcloned and inserted into a modified pFastBac with an N-terminal 10 × His tag. The baculovirus was generated in DH10Bac for recombinant protein expression. After 72 h of infection, Sf9 insect cells were harvested. For structural determination of the PfENT1 protein, Sf9 cells were solubilized in buffer containing 25 mM MES (pH 6.0), 150 mM NaCl, 2% (w/v) n-dodecyl-β-D-maltopyranoside (DDM), and protease inhibitor cocktail (0.8 μM aprotinin, 2 μM pepstatin, and 5 μg/ml leupeptin) at 4 °C for 2 h. After centrifugation at 18,000 rpm for 45 min at 4 °C, the detergent-soluble supernatant was collected via centrifugation at 4 °C for 60 min and incubated with Ni-NTA resin (QIAGEN) at 4 °C for 20 min. The resin was further washed with 25 mM MES pH 6.0, 150 mM NaCl, 10 mM imidazole, and 0.05% (w/v) DDM and eluted with buffer containing 25 mM MES pH 6.0, 150 mM NaCl, 300 mM imidazole, and 0.05% (w/v) DDM. The protein was further purified via size-exclusion chromatography (Superdex 200 Increase 10/300; GE Healthcare) in buffer containing 25 mM MES (pH 6.0), 150 mM NaCl, and 0.05% (w/v) DDM. The peak fractions were pooled and concentrated to 10∼50 μM for the nucleoside-binding assay. The protein purification of the bacterial nucleoside transporter NupG was performed as described in previous studies ([35]).
(§2) […] binding to ENTs was measured at 25 °C via a MicroCal PEAQ-ITC. The purified ENT protein was concentrated to 25 to 50 μM for ITC experiments. The nucleoside was diluted to 5 mM via the same buffer employed for protein purification, which consisted of 25 mM MES (pH 6.0), 150 mM NaCl, and 0.05% DDM. The inhibitor was diluted to 250 μM via the same buffer employed for protein purification, which consisted of 25 mM MES (pH 6.0), 150 mM NaCl, and 0.05% DDM. All the titrations were repeated three times.

[2] = target: T2, PbENT1 (Plasmodium berghei, UniProt A0A509AYF4); assay: ITC binding to PbENT1; details: for Kd: 25 °C, 25 mM MES pH 6.0, 150 mM NaCl, 0.05% DDM
T2 construct: 10xHis (N); made in house; host or cells: Sf9 insect cells (baculovirus)
T2 sequence (A0A509AYF4 1-412): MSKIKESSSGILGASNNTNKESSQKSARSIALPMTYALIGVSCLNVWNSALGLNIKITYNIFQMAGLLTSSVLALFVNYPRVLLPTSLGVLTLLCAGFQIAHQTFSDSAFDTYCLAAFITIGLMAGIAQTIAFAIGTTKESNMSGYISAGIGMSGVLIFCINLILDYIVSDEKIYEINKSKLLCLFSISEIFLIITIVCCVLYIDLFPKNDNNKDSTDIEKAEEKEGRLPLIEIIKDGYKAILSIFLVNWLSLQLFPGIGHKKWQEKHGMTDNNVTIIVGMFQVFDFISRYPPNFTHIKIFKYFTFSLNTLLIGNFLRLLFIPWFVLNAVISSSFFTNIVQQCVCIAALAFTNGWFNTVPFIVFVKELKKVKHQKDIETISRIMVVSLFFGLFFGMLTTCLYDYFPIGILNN
Description: as §1, §2

[3] = target: T3, PbENT1L388M (Plasmodium berghei, UniProt A0A509AYF4, L388M); assay: ITC binding to PbENT1L388M
T3 construct: 10xHis (N); made in house; host or cells: Sf9 insect cells (baculovirus)
T3 sequence (A0A509AYF4 whole entry L388M): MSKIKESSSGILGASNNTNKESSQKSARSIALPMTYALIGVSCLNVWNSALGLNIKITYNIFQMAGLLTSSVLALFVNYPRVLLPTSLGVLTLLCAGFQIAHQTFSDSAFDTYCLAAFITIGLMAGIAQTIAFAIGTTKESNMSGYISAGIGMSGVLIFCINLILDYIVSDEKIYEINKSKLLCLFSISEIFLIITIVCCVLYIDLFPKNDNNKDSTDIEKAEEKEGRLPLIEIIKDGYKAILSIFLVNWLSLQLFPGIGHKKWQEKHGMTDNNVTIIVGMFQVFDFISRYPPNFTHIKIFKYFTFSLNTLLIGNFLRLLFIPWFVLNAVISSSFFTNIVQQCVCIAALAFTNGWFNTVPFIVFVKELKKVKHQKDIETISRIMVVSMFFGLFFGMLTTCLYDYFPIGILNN
Description: as §1, with “The protein purification of the bacterial nucleoside transporter NupG was performed as described in previous studies ([35]).” left out
(§3) […] binding to ENTs was measured at 25 °C via a MicroCal PEAQ-ITC. […]

[4] = target: T4, PvENT1 (Plasmodium vivax, UniProt A5K8B0); assay: ITC binding to PvENT1; details: for Kd: 25 °C, 25 mM MES pH 6.0, 150 mM NaCl, 0.05% DDM
T4 construct: 10xHis (N); made in house; host or cells: Sf9 insect cells (baculovirus)
T4 sequence (A5K8B0 1-416): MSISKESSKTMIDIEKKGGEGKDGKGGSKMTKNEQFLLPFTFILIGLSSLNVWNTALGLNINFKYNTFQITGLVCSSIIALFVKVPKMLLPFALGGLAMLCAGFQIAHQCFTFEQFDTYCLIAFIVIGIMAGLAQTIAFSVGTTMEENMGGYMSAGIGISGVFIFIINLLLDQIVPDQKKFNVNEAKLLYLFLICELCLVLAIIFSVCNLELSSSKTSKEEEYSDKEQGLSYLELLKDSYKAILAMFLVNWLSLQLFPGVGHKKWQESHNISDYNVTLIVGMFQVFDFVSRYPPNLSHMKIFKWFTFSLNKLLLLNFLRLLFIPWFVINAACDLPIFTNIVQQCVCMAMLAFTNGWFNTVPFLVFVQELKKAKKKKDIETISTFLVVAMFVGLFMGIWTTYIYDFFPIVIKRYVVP
Description: as §1, §2

[5] = target: T5, PfENT1M389L (Plasmodium falciparum, UniProt Q8IDM6, M389L); assay: ITC binding to PfENT1M389L
T5 construct: 10xHis (N); made in house; host or cells: Sf9 insect cells (baculovirus)
T5 sequence (Q8IDM6 whole entry M389L): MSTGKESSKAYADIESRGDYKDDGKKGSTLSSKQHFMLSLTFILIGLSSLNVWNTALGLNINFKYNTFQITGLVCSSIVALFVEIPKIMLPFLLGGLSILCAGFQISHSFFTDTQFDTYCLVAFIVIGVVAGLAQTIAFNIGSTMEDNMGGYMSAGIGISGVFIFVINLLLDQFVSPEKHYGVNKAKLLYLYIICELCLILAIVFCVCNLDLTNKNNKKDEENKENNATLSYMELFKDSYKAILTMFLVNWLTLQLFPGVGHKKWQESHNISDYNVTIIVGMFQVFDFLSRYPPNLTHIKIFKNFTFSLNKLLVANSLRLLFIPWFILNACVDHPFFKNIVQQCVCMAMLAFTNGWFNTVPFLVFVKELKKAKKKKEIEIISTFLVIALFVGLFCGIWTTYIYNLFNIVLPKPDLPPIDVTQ
Description: as §1, §2

[6] = target: T6, PfENT1S49C (Plasmodium falciparum, UniProt Q8IDM6, S49C); assay: ITC binding to PfENT1S49C
T6 construct: 10xHis (N); made in house; host or cells: Sf9 insect cells (baculovirus)
T6 sequence (Q8IDM6 whole entry S49C): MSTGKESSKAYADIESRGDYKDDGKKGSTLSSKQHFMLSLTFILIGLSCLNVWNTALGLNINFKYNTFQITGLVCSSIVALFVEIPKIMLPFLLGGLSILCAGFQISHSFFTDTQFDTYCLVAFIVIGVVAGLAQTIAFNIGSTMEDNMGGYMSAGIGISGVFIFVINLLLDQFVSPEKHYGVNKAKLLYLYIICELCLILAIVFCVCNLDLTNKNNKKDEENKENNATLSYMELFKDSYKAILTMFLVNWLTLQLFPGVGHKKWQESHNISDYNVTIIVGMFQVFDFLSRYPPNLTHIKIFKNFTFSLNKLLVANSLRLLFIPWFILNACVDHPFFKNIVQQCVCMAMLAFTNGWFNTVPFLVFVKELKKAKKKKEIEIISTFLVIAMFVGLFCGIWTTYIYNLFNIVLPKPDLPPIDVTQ
Description: as §1, with “The protein purification of the bacterial nucleoside transporter NupG was performed as described in previous studies ([35]).” left out
as §3

[7] = target: T7, PbENT1C43S (Plasmodium berghei, UniProt A0A509AYF4, C43S); assay: ITC binding to PbENT1C43S
T7 construct: 10xHis (N); made in house; host or cells: Sf9 insect cells (baculovirus)
T7 sequence (A0A509AYF4 whole entry C43S): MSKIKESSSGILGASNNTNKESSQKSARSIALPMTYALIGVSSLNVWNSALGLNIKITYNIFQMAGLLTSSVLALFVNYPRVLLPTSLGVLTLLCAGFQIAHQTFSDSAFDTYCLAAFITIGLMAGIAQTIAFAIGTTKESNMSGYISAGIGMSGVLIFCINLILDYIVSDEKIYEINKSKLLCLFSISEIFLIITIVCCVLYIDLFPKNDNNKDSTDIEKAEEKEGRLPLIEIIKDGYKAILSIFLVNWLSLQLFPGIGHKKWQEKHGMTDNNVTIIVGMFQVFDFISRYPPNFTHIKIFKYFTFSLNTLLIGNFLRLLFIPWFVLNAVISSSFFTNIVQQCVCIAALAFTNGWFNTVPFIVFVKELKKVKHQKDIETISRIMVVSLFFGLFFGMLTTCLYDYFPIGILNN
Description: as §1, §2

[8] = target: T1, PfENT1; parameters: method as in PMID 36977719; details: competition assay; cited from earlier work
[9] = target: T8, PbENT1M64I (Plasmodium berghei, UniProt A0A509AYF4, M64I); assay: ITC binding to PbENT1M64I
T8 construct: 10xHis (N); made in house; host or cells: Sf9 insect cells (baculovirus)
T8 sequence (A0A509AYF4 whole entry M64I): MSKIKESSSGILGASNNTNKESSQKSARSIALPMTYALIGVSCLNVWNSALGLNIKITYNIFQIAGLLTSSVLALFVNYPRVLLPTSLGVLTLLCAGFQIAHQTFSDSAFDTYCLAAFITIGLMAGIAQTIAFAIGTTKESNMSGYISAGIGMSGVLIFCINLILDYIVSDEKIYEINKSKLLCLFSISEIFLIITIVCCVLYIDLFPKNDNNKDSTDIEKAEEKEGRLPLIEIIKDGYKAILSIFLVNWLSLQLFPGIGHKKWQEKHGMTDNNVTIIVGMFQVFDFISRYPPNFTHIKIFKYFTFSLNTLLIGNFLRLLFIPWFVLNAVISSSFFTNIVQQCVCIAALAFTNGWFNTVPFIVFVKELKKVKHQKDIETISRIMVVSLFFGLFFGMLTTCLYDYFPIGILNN
Description: as §1, with “The protein purification of the bacterial nucleoside transporter NupG was performed as described in previous studies ([35]).” left out
as §3

[10] = target: T9, PfENT1I70M (Plasmodium falciparum, UniProt Q8IDM6, I70M); assay: ITC binding to PfENT1I70M
T9 construct: 10xHis (N); made in house; host or cells: Sf9 insect cells (baculovirus)
T9 sequence (Q8IDM6 1-422 I70M): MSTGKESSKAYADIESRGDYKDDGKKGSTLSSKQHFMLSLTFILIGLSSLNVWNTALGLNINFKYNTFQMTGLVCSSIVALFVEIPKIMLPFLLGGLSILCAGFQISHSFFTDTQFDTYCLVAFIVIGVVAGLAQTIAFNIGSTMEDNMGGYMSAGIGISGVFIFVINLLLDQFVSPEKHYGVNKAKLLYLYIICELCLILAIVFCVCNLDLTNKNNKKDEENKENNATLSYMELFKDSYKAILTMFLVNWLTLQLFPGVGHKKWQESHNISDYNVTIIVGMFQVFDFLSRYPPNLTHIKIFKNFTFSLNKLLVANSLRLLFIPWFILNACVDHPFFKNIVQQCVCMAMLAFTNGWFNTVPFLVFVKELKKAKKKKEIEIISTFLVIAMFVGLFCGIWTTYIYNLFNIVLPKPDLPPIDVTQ
Description: as §1, with “The protein purification of the bacterial nucleoside transporter NupG was performed as described in previous studies ([35]).” left out
as §3

[11] = read-out: Kd (binding affinity for PbENT1)
[12] = read-out: Kd (binding affinity for PvENT1)
[13] = Kd (binding affinity for PfENT1)
[14] = read-out: Kd (binding affinity for PfENT1)

For `Cc1oc(-c2ccc(Cl)cc2)nc1C(=O)NCCN1CCCCCC1=O` [GSK4-1], the “decrease in binding affinity for PfENT1 (versus GSK4)” value [1] was 3.5 fold.
For `Cc1oc(-c2ccccc2Cl)nc1C(=O)NCCN1CCCCCC1=O` [GSK4-2], the “decrease in binding affinity for PfENT1 (versus GSK4)” value [1] was 1.6 fold.
With `Cc1oc(-c2ccccc2)nc1C(=O)NCCN1CCCCCC1=O` [GSK4] the Kd [2, 11] was 15.4 µM and 4.92 µM and 12.6 µM, the “binding affinity of PbENT1L388M relative to PbENT1WT” value [3] was “five times greater” and the Kd ([3]; Kd (binding to PbENT1L388M), 25 °C, pH 6.0) was 2.59 µM and 2.09 µM and 2.77 µM. For the same compound, the Kd [4, 12] was 0.0543 µM and 0.0372 µM and ~0.0472 µM and 0.0472 µM, the “binding affinity of PfENT1M389L relative to PfENT1WT” value [5] was “five times weaker” and the Kd ([5]; Kd (binding to PfENT1M389L), 25 °C, pH 6.0) was 0.234 µM and 0.317 µM and 0.276 µM. For the same compound, the Kd [1, 13] was 0.0381 µM and 0.0519 µM and 0.0481 µM.
In the case of `Nc1ncnc2c1ncn2[C@@H]1O[C@H](CO)[C@@H](O)[C@H]1O` [adenosine], the Kd [2, 11] is reported as 38.1 µM and 36.6 µM and 40.5 µM, the “thermodynamic pattern of binding to PfENT1S49C” value [6] is reported as “enthalpy-driven” and the “binding to PbENT1C43S (in words)” value [7] is reported as “did not show detectable adenosine binding”. For the same compound, the “inhibition of the inosine transport activity of PfENT1” value [8] was “effectively inhibited”.
For `Nc1ccn([C@@H]2O[C@H](CO)[C@@H](O)[C@H]2O)c(=O)n1` [cytidine], the “binding affinity for PbENT1 (in words)” value [2] was “No binding affinity was detected”.
With `Nc1nc2c(ncn2[C@@H]2O[C@H](CO)[C@@H](O)[C@H]2O)c(=O)[nH]1` [guanosine] the Kd [2, 11] was 15.6 µM and 8.69 µM and 11.3 µM, the Kd [4, 12] was ~49.3 µM and 49.3 µM and 50.5 µM and 46.3 µM and the Kd [1, 13] was roughly 179 µM.
With `O=c1[nH]cnc2c1ncn2[C@@H]1O[C@H](CO)[C@@H](O)[C@H]1O` [inosine] the “thermodynamic pattern of binding to PbENT1” value [2] was “enthalpy-driven”, the “ΔH of binding to PbENT1” value ([2]; exothermic reaction) was less than 0 and the “binding affinity of PbENT1M64I relative to WT PbENT1” value [9] was “fivefold lower”. The “binding to PfENT1S49C (in words)” value [6] was “complete abolishment”, the “thermodynamic pattern of binding to PvENT1” value [4] was “enthalpy-entropy compensation” and the “ΔH of binding to PvENT1” value ([4]; exothermic reaction) was less than 0. The “affinity for PfENT1I70M (in words)” value ([10]; compared with PfENT1) was “comparable affinity”, the “thermodynamic pattern of binding to PfENT1” value [1] was “entropy-driven” and the Kd [1, 14] was 77.3 µM. For the same compound, the “ΔH of binding to PfENT1” value ([1]; endothermic reaction) was greater than 0 and the “binding affinity of PbENT1C43S relative to WT PbENT1” value [7] was “fivefold lower”.
In the case of `OC[C@H]1O[C@@H](n2cnc3c(O)ncnc32)[C@H](O)[C@@H]1O` [inosine], the Kd [2, 11] is reported as 13.6 µM and 6.11 µM and 13.5 µM, the Kd ([9]; Kd (binding to PbENT1M64I), 25 °C, pH 6.0) is reported as 61.6 µM and 53.5 µM and 58.9 µM and the Kd [4, 12] is reported as ~146 µM and 146 µM and 161 µM and 173 µM. For the same compound, the Kd ([10]; 25 °C, pH 6.0) was 58.3 µM and 78.5 µM and 65.3 µM, the Kd [1, 14] was roughly 64.2 µM and the Kd ([7]; Kd (binding to PbENT1C43S), 25 °C, pH 6.0) was 51.4 µM and 55.9 µM and 58.4 µM.
In the case of `Cc1cn([C@H]2C[C@H](O)[C@@H](CO)O2)c(=O)[nH]c1=O` [thymidine], the “binding affinity for PbENT1 (in words)” value [2] is given as “weak”, the “binding affinity for PfENT1 (in words)” value ([1]; PfENT1 WT) is given as “undetectable” and the “inhibition of the inosine transport activity of PfENT1” value [8] is given as “effectively inhibited”.
For `O=c1ccn([C@@H]2O[C@H](CO)[C@@H](O)[C@H]2O)c(=O)[nH]1` [uridine], the “binding affinity for PbENT1 (in words)” value [2] was “No binding affinity was detected”.
With `O=c1[nH]c(=O)c2ncn([C@@H]3O[C@H](CO)[C@@H](O)[C@H]3O)c2[nH]1` [xanthosine] the Kd ([2]; Kd (binding affinity for PbENT1)) was 88.2 µM and 92.8 µM and 95.5 µM and the Kd ([4]; Kd (binding affinity for PvENT1)) was 114 µM and 122 µM and 107 µM.
